Data taken from PMC10985088, “Synthesis and biological evaluation of echinomycin analogues as potential colon cancer agent” (Scientific Reports, 2024).
Like-named read-outs stand apart in the source and are kept apart here.

What was measured:
[1] = Hepatic microsomal stability assay, human; assay type: in vitro ADME; conditions: microsomes, 1 μM, 0.2 mg/mL microsomes, 37 °C, 30 min
Description: Before investigating the in vivo efficacy of 3, its metabolic stability was evaluated by treatment with human or mouse liver microsomes at 37 °C for 30 min, and the remaining analogues were analyzed by LC–MS/MS (Table 3). […] This means that approximately 67% of 3 was unaffected by human liver microsomes.
Basically, the analysis was performed using methods previously reported. Disappearance of the parent compound over time was measured by using the amount of drug at time zero as a reference. After 5 min of preincubation, 1 mM NADPH (final concentration, the same applies to the following, NADPH( +)) or 0.1 M phosphate buffer (pH 7.4, NADPH(−))) was added to a mixture containing 1 μM of the test compound, 0.2 mg/mL of human or mouse liver microsomes (Sekisui XenoTech LLC (Kansas City, KS)), 1 mM EDTA and 0.1 M phosphate buffer (pH 7.4) and incubated at 37 °C for 30 min by rotation at 60 rpm. An aliquot of 50 μL of the incubation mixture was sampled and added to 250 μL of chilled acetonitrile/internal standard (IS). After centrifuging for 15 min at 3150×g (4 °C), the supernatants were analyzed by LC–MS/MS. Hepatic microsomal stability (mL/min/kg, CLint) was calculated according to the previous report, using 48.8 and 45.4 mg MS protein/g liver and 25.7 and 87.5 g liver/kg body weight as scaling factors for human and mouse, respectively.
Basically, the analysis was performed using methods previously reported. An LC-MS8060 instrument equipped with a Shimadzu Nexera series LC system (Shimadzu, Kyoto, Japan) was used. All compounds were analyzed in multi-reaction monitoring mode under electron spray ionization conditions. The analytical column used was a […] C18 MGIII (3 μm × 2.0 mmID × 35 mm; OSAKA SODA, Osaka, Japan) at 50 °C. The gradient mobile phase consisted of 0.1% formic acid in water (mobile phase A,) and 0.1% formic acid in acetonitrile (mobile phase B) at a total flow rate of 1 mL/min. The initial mobile phase composition was 10% B, which was held constant for 0.2 min, increased in a linear fashion to 90% B over 1 min, then held constant for 0.8 min, and finally brought back to the initial condition of 10% B over 0.01 min and re-equilibrated for 1 min. The transitions (precursor ion > product ion) of echinomycin, 3 and IS (methyl testosterone) are 1101.45 > 1053.5 (positive), 1083.5 > 523.95 (negative), and 303.1 > 109.1 (positive), respectively.

[2] = parameters: method as in PMID 2737217; conditions: doses of 60 and 120 μg/m^2; cited from earlier work
SW620 cells = experiment: WST-8 cytotoxicity assay, SW620; conditions: read-out: IC50 SW620; human colon cancer cell, 72 h, mean ± SE (n = 3)
Description: (§1) With a range of chromophore analogues in hand, their toxicity to SW620 cells was investigated by WST assays.
(§2) Basically, the evaluation was performed using methods previously reported by our group[20],[23]. Cytotoxic activities of compounds against MIA PaCa-2 (American Type Culture Collection), SW620 (European Collection of Authenticated Cell Cultures) were measured by WST-8 assay according to manufacturer’s protocol. Briefly, cells (1 × 10^4 cells/well) in a 96-well plate were cultured in medium (for MIA PaCa-2, D-MEM (Wako, Japan) containing 10% fetal bovine serum (Funakoshi, Japan), 100 units/mL penicillin G and 100 µg/mL streptomycin (Wako, Japan), for SW620, RPMI-1640 (Wako, Japan) containing 10% fetal bovine serum, 100 units/mL penicillin G and 100 µg/mL streptomycin) were cultured at 37 °C for 24 h under 5% CO2 atmosphere. Then, cells were treated with test compounds (final DMSO concentration was 1%) at 37 °C for 72 h under 5% CO2 atmosphere. Then, cells were treated with a solution of Cell Counting Kit-8® (Dojindo, Japan) for 3 h. After that, cell viabilities were determined based on the measurement of absorption at 450 nm of the wells by using TECAN Infinite® M200 microplate reader. The results were expressed as a percentage of the negative control (cells treated with DMSO only), and that value was fixed at 100%.

MIA PaCa-2 cells = conditions: read-out: IC50 MIA PaCa-2; human pancreatic carcinoma cell, 72 h, mean ± SE (n = 3)
Description: as §1, §2

SW620 xenograft = SW620 xenograft mouse model; assay type: in vivo; conditions: i.p. 0.04 and 0.4 µg/mouse daily for 10 days, compared to PBS-injected group
Description: Since the metabolic stability and identification of the maximum tolerated dose of 3 were confirmed, the effect of 3 on colon cancer progression in vivo was then investigated (Fig. 7). A xenograft model was generated by injecting a suspension of 2 × 10^6 SW620 cells into the backs of nude mice. The doses of the compounds were 0.04 and 0.4 µg/mouse, which correspond to approximately 1.6 and 16 μg/kg, respectively, according to the results obtained in Fig. S1. A solution of 1, 3, or PBS was injected intraperitoneally into each mouse, and tumor sizes were measured each day. […] Of note is the efficacy of tumor growth inhibition with 3.
Figure 7 In vivo anticancer activity of echinomycin and 3 on the SW620 xenograft mice model. Male BALB/C nude mice were administered by intraperitoneal injection with the vehicle, echinomycin and 3, at dosages of 0.04 and 0.4 µg/mice (n = 10 each group), every day for 10 days (a, b). Average tumor volume (c) was measured. Data are expressed as the mean ± standard error ([…]). *Indicates P < 0.05 by Student's t test. The error bars show the s.d. (n = 10).
Basically, the experiments were performed using methods previously reported. […] The tumor size was calculated by the following formula: Tumor size (mm^2) = (major diameter) × (minor diameter).

CS[C@H]1SC[C@H]2C(=O)N(C)[C@@H](C(C)C)C(=O)OC[C@@H](NC(=O)c3cnc4ccccc4n3)C(=O)N[C@@H](C)C(=O)N(C)[C@@H]1C(=O)N(C)[C@@H](C(C)C)C(=O)OC[C@@H](NC(=O)c1cnc3ccccc3n1)C(=O)N[C@@H](C)C(=O)N2C [Compound 1, Echinomycin]
CLint scaled ([1]; NADPH(+), read-out: Metabolic stability (CLint) Human NADPH(+)): < 22 mL/min/kg
CLint scaled ([1]; NADPH(−), read-out: Metabolic stability (CLint) Human NADPH(−)): < 22 mL/min/kg
toxicity at lower doses in human clinical trials [2]: no observed toxicity
IC50 (SW620 cells): 2.5 ± 0.8 nM
IC50 (MIA PaCa-2 cells): 0.75 ± 0.02 nM
tumor growth (SW620 xenograft): significantly suppressed
